The source of these data is patent publication US11142515B2, “Pyrazolyl-ureas as kinase inhibitors” (RESPIVERT LIMITED, priority 2014, dated 2021).

pIC50: −log10 of the molar value. Some results are limits rather than exact numbers.

This experiment concerns the target T1, p38MAPKγ (MAPK12) (Homo sapiens, UniProt P53778).
T1 construct: purchased Life Technologies
T1 sequence (P53778 1-367): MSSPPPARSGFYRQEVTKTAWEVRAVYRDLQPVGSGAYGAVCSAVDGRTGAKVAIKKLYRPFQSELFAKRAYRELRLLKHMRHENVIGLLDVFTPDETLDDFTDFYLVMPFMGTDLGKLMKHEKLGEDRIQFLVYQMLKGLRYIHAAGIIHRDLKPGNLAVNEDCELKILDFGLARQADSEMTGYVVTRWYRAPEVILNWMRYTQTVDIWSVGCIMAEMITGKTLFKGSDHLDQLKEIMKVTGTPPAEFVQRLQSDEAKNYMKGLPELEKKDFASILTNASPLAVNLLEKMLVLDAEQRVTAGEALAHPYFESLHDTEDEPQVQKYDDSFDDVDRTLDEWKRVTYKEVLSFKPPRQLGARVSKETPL
The experiment in a line: p38 MAPKγ enzyme inhibition (Z-LYTE FRET). It counts as biochemical. The following applies: Table 2B, unit inferred; read-out: p38 MAPKγ (Enzyme Profile). How it is done: The enzyme inhibitory activities of compounds disclosed herein were determined by FRET using synthetic peptides labelled with both donor and acceptor fluorophores (Z-LYTE, Life Technologies, Paisley, UK).
The inhibitory activities of compounds of the invention against p38MAPKγ (MAPK12: Life Technologies), were evaluated by determining the level of activation/phosphorylation of the target peptide. The enzyme (800 ng/mL, 2.5 μL) was incubated with the test compound (2.5 μL at either 40 μg/mL, 12 μg/mL, 4 μg/mL, 1.2 μg/mL, 0.4 μg/mL, 0.12 μg/mL, 0.04 μg/mL, 0.012 μg/mL, 0.004 μg/mL or 0.0012 μg/mL) for 2 h at RT. The FRET peptides (8 μM, 2.5 μL), and appropriate ATP solution (2.5 μL, 400 μM) were then added to the enzymes/compound mixtures and incubated for 1 h at RT. Development reagent (protease, 5 μL) was added for 1 h prior to detection in a fluorescence microplate reader (EnVision, Perkin Elmer).
In all cases, the site-specific protease cleaves non-phosphorylated peptide only and eliminates the FRET signal. Phosphorylation levels of each reaction were calculated using the ratio of coumarin emission (donor) over fluorescein emission (acceptor), for which low ratios indicate high phosphorylation and high ratios indicate low phosphorylation levels.
Consider `CO[C@H]1CCCN(CCNC(=O)c2cnc(Nc3cc(COc4ccc(NC(=O)Nc5cc(C(C)(C)C)nn5-c5ccc(C)cc5)c5ccccc45)ccn3)cn2)C1` [Example 54, (S)-5-((4-(((4-(3-(3-(tert-butyl)-1-(p-tolyl)-1H-pyrazol-5-yl)ureido)naphthalen-1-yl)oxy)methyl)pyridin-2-yl)amino)-N-(2-(3-methoxypiperidin-1-yl)ethyl)pyrazine-2-carboxamide], for which the pIC50 was 6.82.
As for `CSc1cccc(-n2nc(C(C)(C)C)cc2NC(=O)Nc2ccc(OCc3ccnc(Nc4cnccn4)c3)c3ccccc23)c1` [Example 77], the pIC50 was 6.97.
As to `Cc1ccc(-n2nc(C(C)(C)C)cc2NC(=O)Nc2ccc(OCc3ccnc(Nc4cnc(C(=O)NCC5CCN(C)CC5)cn4)c3)c3ccccc23)cc1` [Example 81], the pIC50 was 7.80.
For `Cc1ccc(-n2nc(C(C)(C)C)cc2NC(=O)Nc2ccc(OCc3ccnc(Nc4cnc(C(=O)N[C@@H]5CCN(C)C5)cn4)c3)c3ccccc23)cc1` [Example 82] the value was 7.34; for `Cc1ccc(-n2nc(C(C)(C)C)cc2NC(=O)Nc2ccc(OCc3ccnc(Nc4cnc(C(=O)N[C@H]5CCN(C)C5)cn4)c3)c3ccccc23)cc1` [Example 83], 7.41; for `Cc1ccc(-n2nc(C(C)(C)C)cc2NC(=O)Nc2ccc(OCc3ccnc(Nc4cnc(C(=O)NCCN5CCC(O)CC5)cn4)c3)c3ccccc23)cc1` [Example 84], 7.17.
Under `Cc1ccc(-n2nc(C(C)(C)C)cc2NC(=O)Nc2ccc(OCc3ccnc(Nc4cnc(C(=O)NCCN5C[C@@H](C)O[C@@H](C)C5)cn4)c3)c3ccccc23)cc1` [Example 85] stands 6.78; under `Cc1ccc(-n2nc(C(C)(C)C)cc2NC(=O)Nc2ccc(OCc3ccnc(Nc4cnc(C(=O)NCCN5CCCC5)cn4)c3)c3ccccc23)cc1` [Example 86], 7.72; under `Cc1ccc(-n2nc(C(C)(C)C)cc2NC(=O)Nc2ccc(OCc3ccnc(Nc4cnc(C(=O)NC[C@H](O)CN5CCOCC5)cn4)c3)c3ccccc23)cc1` [Example 87], 7.20.
Regarding `Cc1ccc(-n2nc(C(C)(C)C)cc2NC(=O)Nc2ccc(OCc3ccnc(Nc4cnc(C(=O)N[C@H]5CCCN(C)C5)cn4)c3)c3ccccc23)cc1` [Example 88], the pIC50 was 6.63.
As to `Cc1ccc(-n2nc(C(C)(C)C)cc2NC(=O)Nc2ccc(OCc3ccnc(Nc4cnc(C(=O)NC5CN(C)C5)cn4)c3)c3ccccc23)cc1` [Example 89], the pIC50 is 7.38.
In the case of `Cc1ccc(-n2nc(C(C)(C)C)cc2NC(=O)Nc2ccc(OCc3ccnc(Nc4cnc(C(=O)NCCn5ccnc5C)cn4)c3)c3ccccc23)cc1` [Example 90], the pIC50 was 7.08.
With `COC(=O)N1CCN(CCNC(=O)c2cnc(Nc3cc(COc4ccc(NC(=O)Nc5cc(C(C)(C)C)nn5-c5ccc(C)cc5)c5ccccc45)ccn3)cn2)CC1` [Example 91], the pIC50 was 6.75.
Consider `COC1CCN(CCNC(=O)c2cnc(Nc3cc(COc4ccc(NC(=O)Nc5cc(C(C)(C)C)nn5-c5ccc(C)cc5)c5ccccc45)ccn3)cn2)CC1` [Example 92], for which the pIC50 was 6.93.
For the compound `Cc1ccc(-n2nc(C(C)(C)C)cc2NC(=O)Nc2ccc(OCc3ccnc(Nc4cnc(C(=O)N[C@H]5COC[C@@H]5N5CCOCC5)cn4)c3)c3ccccc23)cc1` [Example 93], the pIC50 is 6.99.
Take `Cc1ccc(-n2nc(C(C)(C)C)cc2NC(=O)Nc2ccc(OCc3ccnc(Nc4cnc(C(=O)NCCN5CCC(F)(F)CC5)cn4)c3)c3ccccc23)cc1` [Example 94]: the pIC50 is 6.11.
As to `Cc1ccc(-n2nc(C(C)(C)C)cc2NC(=O)Nc2ccc(OCc3ccnc(Nc4cnc(C(=O)NCCN5CCC[C@@H](O)C5)cn4)c3)c3ccccc23)cc1` [Example 95], the pIC50 was 7.26.
Consider `Cc1ccc(-n2nc(C(C)(C)C)cc2NC(=O)Nc2ccc(OCc3ccnc(Nc4cnc(C(=O)NCCN5CCC(F)CC5)cn4)c3)c3ccccc23)cc1` [Example 96], for which the pIC50 was 6.57.
In the case of `Cc1ccc(-n2nc(C(C)(C)C)cc2NC(=O)Nc2ccc(OCc3ccnc(Nc4cnc(C(=O)NCCN5CC[C@@H](O)C5)cn4)c3)c3ccccc23)cc1` [Example 97], the pIC50 is 7.47.
Regarding `CO[C@@H]1CCN(CCNC(=O)c2cnc(Nc3cc(COc4ccc(NC(=O)Nc5cc(C(C)(C)C)nn5-c5ccc(C)cc5)c5ccccc45)ccn3)cn2)C1` [Example 98], the pIC50 is 6.94.
Consider `COCc1cccc(-n2nc(C(C)(C)C)cc2NC(=O)Nc2ccc(OCc3ccnc(Nc4cnc(C(=O)NCC5CCN(C)CC5)cn4)c3)c3ccccc23)c1` [Example 99], for which the pIC50 was 7.96.
For the compound `Cc1ccc(-n2nc(C(C)(C)C)cc2NC(=O)Nc2ccc(OCc3ccnc(Nc4cnc(C(=O)NCCN5CC[C@@H](F)C5)cn4)c3)c3ccccc23)cc1` [Example 100], the pIC50 was 6.69.
For `Cc1ccc(-n2nc(C(C)(C)C)cc2NC(=O)Nc2ccc(OCc3ccnc(Nc4cnc(C(=O)NCCN5CCC[C@H](F)C5)cn4)c3)c3ccccc23)cc1` [Example 101] the value was 6.43; for `CC(=O)N1CCN(CCNC(=O)c2cnc(Nc3cc(COc4ccc(NC(=O)Nc5cc(C(C)(C)C)nn5-c5ccc(C)cc5)c5ccccc45)ccn3)cn2)CC1` [Example 102], 7.34.
`Cc1ccc(-n2nc(C(C)(C)C)cc2NC(=O)Nc2ccc(OCc3ccnc(Nc4cnc(C(=O)NC5CCN(CCO)CC5)cn4)c3)c3ccccc23)cc1` [Example 103]: the pIC50 was 7.14.
For `COc1ccc(-n2nc(C(C)(C)C)cc2NC(=O)Nc2ccc(OCc3ccnc(Nc4cnc(C)c(C)n4)c3)c3ccccc23)cc1F` [Example 252, 1-(3-(tert-butyl)-1-(3-fluoro-4-methoxyphenyl)-1H-pyrazol-5-yl)-3-(4-((2-((5,6-dimethylpyrazin-2-yl)amino)pyridin-4-yl)methoxy)naphthalen-1-yl)urea] the value was below 4.82; for `CC(C)(C)c1cc(NC(=O)Nc2ccc(OCc3ccnc(Nc4cnc(CO)cn4)c3)c3ccccc23)n(-c2cccc(F)c2)n1` [Example 253, 1-(3-(tert-butyl)-1-(3-fluoro-phenyl)-1H-pyrazol-5-yl)-3-(4-((2-((5-(hydroxymethyl)pyrazin-2-yl)amino)pyridin-4-yl)methoxy)naphthalen-1-yl)urea], 7.12.
Turning to `CCc1cncc(Nc2cc(COc3ccc(NC(=O)Nc4cc(C(C)(C)C)nn4-c4cc(C)cc(F)c4)c4ccccc34)ccn2)n1` [Example 254, 1-(3-(tert-butyl)-1-(3-fluoro-5-methylphenyl)-1H-pyrazol-5-yl)-3-(4-((2-((6-ethyl-pyrazin-2-yl)amino)pyridin-4-yl)methoxy)naphthalen-1-yl)urea], the pIC50 was 5.71.
As for `CCCc1cncc(Nc2cc(COc3ccc(NC(=O)Nc4cc(C(C)(C)C)nn4-c4cccc(F)c4)c4ccccc34)ccn2)n1` [Example 255, 1-(3-(tert-butyl)-1-(3-fluoro-phenyl)-1H-pyrazol-5-yl)-3-(4-((2-((6-propylpyrazin-2-yl)amino)pyridin-4-yl)methoxy)naphthalen-1-yl) urea], the pIC50 was below 4.81.
Take `CC(C)(C)c1cc(NC(=O)Nc2ccc(OCc3ccnc(Nc4cnc(CO)cn4)c3)c3ccccc23)n(-c2cccc(Cl)c2)n1` [Example 256, 1-(3-(tert-butyl)-1-(3-chloro-phenyl)-1H-pyrazol-5-yl)-3-(4-((2-((5-(hydroxymethyl)pyrazin-2-yl)amino)pyridin-4-yl)methoxy)naphthalen-1-yl)urea]: the pIC50 is below 4.81.
For `CCN1CCN(C(=O)c2cnc(Nc3cc(COc4ccc(NC(=O)Nc5cc(C(C)(C)C)nn5-c5ccc(C)cc5)c5ccccc45)ccn3)cn2)CC1` [Example 271, 1-(3-(tert-butyl)-1-(p-tolyl)-1H-pyrazol-5-yl)-3-(4-((2-((5-(4-ethylpiperazine-1-carbonyl)pyrazin-2-yl)amino)pyridin-4-yl)methoxy)naphthalen-1-yl)urea], the pIC50 is 6.97.
With `Cc1ccc(-n2nc(C(C)(C)C)cc2NC(=O)Nc2ccc(OCc3ccnc(Nc4cnc(C(=O)N5CCC(N(C)C)CC5)cn4)c3)c3ccccc23)cc1` [Example 272], the pIC50 was 8.40.
As to `Cc1ccc(-n2nc(C(C)(C)C)cc2NC(=O)Nc2ccc(OCc3ccnc(Nc4cnc(C(=O)N5CCN(CCN(C)C)CC5)cn4)c3)c3ccccc23)cc1` [Example 273, 1-(3-(tert-butyl)-1-(p-tolyl)-1H-pyrazol-5-yl)-3-(4-((2-((5-(4-(2-(dimethylamino)ethyl)piperazine-1-carbonyl)pyrazin-2-yl)amino)pyridin-4-yl)methoxy)naphthalen-1-yl)urea], the pIC50 is 8.33.
Under `Cc1ccc(-n2nc(C(C)(C)C)cc2NC(=O)Nc2ccc(OCc3ccnc(Nc4cnc(C(=O)N5CCCN(C)CC5)cn4)c3)c3ccccc23)cc1` [Example 274, 1-(3-(tert-butyl)-1-(p-tolyl)-1H-pyrazol-5-yl)-3-(4-((2-((5-(4-methyl-1,4-diazepane-1-carbonyl)pyrazin-2-yl)amino)pyridin-4-yl)methoxy)naphthalen-1-yl)urea] stands 7.89.
